Molecular target: MAPK14 (p38 alpha) (Homo sapiens, UniProt Q16539)
Assay: Z′-LYTE FRET kinase assay (SelectScreen, MAPK14 direct, Ser/Thr […] peptide)
Assay type: biochemical

Sequence of MAPK14 (p38 alpha) (Q16539 2-360): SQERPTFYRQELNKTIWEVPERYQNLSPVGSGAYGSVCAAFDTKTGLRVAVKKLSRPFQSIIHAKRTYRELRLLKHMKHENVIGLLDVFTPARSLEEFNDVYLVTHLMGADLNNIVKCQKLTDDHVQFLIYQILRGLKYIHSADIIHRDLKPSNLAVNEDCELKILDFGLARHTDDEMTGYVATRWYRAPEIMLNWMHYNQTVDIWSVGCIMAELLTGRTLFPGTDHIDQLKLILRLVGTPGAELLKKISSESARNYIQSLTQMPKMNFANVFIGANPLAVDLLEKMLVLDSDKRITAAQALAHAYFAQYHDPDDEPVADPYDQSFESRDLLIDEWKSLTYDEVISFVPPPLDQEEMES

C=C1C(=O)OC2C1C(OC(C)=O)C/C(C)=C/CC(OC(C)=O)/C(C)=C/CC(OC(C)=O)C1(C)OC21 (stereo not shown) [crassolide]
IC50: ~5.15 µM
